pIC50: −log10 of the molar value. Like-named read-outs stand apart in the source and are kept apart here.
Experiments:
[1] = Parallel artificial membrane permeability assay (PAMPA); settings: PAMPA, PBS pH 7.4, 200 µM, 5 h, room temperature; for Papp at 5 h, 200 µM: pH 7.4, Pe
Protocol: With the high-throughput PAMPA the newly synthesized compounds were tested for their passive permeability through cell membranes without the influence of efflux pumps or transporter proteins. The assay was performed using a Corning® Gentest^TM Precoated PAMPA Plate System (Corning, Glendale, AZ, USA) with 96-well polystyrene plates. The bottom of the acceptor plate consists of a porous membrane, whereby the pores are lined with a lipid–oil–lipid triple layer. Stock solutions of each test compound at 10 mM were prepared in DMSO or methanol and diluted with phosphate-buffered saline (PBS at a pH of 7.4) to a final concentration of 200 µM. […] The donor plate (bottom plate) was filled with the compound solutions, whereby all compounds were tested in quadruplicates. Each well of the acceptor plate (top plate) was filled with PBS buffer. Donor and acceptor plates were combined and incubated at room temperature for 5 h. After that, the plates were separated and 150 µL of each well of both plates were transferred to 96-well UV plates (Greiner Bio-One). Absorption at different wavelengths covering a range from 200 to 300 nm was measured using a SpectraMax M3 UV plate reader. […] The plates were analyzed at the wavelength where the R2 value of the calibration curve was higher than 0.99 [47].
Recovery of compounds from donor and acceptor wells (mass retention) was calculated as shown in the equation below. Data were only accepted when recovery exceeded 70%. The equation is as follows:(3) R=1−[cDt×VD+cAt×VA]/(c0×VD) where

[2] = tested on: E. coli NCTC 13353; experiment: MIC/MBC microbroth dilution (EUCAST); assay type: cell-based, Escherichia coli; settings: for MBC: NCTC13353
Protocol: (§1) Minimum inhibitory concentrations (MIC values) were obtained using the microbroth dilution method as stated in the EUCAST guidelines. Tests were conducted on cation adjusted Mueller–Hinton broth (caMHB) or agar (caMHA). These were prepared and stored following the manufacturer’s guidelines. Biological organisms were prepared via growth on either Luria–Bertani (LB) or cation adjusted Mueller–Hinton agar plates. These were grown for 24 h at 37 °C, except for Micrococcus luteus where MICs took longer to grow and as a consequence were read after 48 h once a clear positive control could be observed. For the MIC experiment, the bacteria were prepared using the McFarland 0.5 standard and diluted 1 in 100 or 1 in 10 in caMHB following EUCAST and CSLI guidelines for the preparation of bacteria. Testing of the compounds using the microbroth dilution method took place in 96-well plates. Serial 2-fold dilutions of compounds in caMHB covering a range from 256 µg/mL to 0.25 µg/mL were prepared. Bacteria preparations (McFarland) were added to the compound dilutions, further halving the compound concentrations. The plate was then incubated for 18 h at 37 °C. Controls for the MIC experiments included a bacterial growth (positive) control of bacteria and caMHB only and a media only (negative) control. After incubation, the plates were read, whereby the positive control of bacteria was visible and the negative control was clear of contamination. The last clear well, where there is no growth of bacteria, was counted as the MIC value. […] The lowest concentration without any bacterial growth was counted as the MBC value. The following pathogens were used: Pseudomonas aeruginosa NCTC 13437, Escherichia coli NCTC 13353, Bacillus subtilis 168a, Serratia marcescens NCTC 9940, Micrococcus luteus ATCC 10240, Staphylococcus aureus JE2 USA 300, Acinetobacter baumannii ATCC 19606, and Klebsiella pneumoniae ATCC 700603. A concentration range of 256 µg/mL to 0.25 µg/mL of a combination of ciprofloxacin and meropenem against E. coli 25922 was used as an antibiotic control to ensure correct dilution and performance of the assay.

[3] = tested on: P. aeruginosa NCTC 13437; experiment: MIC/MBC microbroth dilution (EUCAST); assay type: cell-based; settings: Pseudomonas aeruginosa, NCTC13437
Protocol: as §1

[4] = tested on: S. aureus JE2 USA 300; experiment: MIC/MBC microbroth dilution (EUCAST); assay type: cell-based; settings: Staphylococcus aureus, USA300, S. aureus JE2 USA 300
Protocol: as §1

[5] = tested on: K. pneumoniae ATCC 700603; experiment: MIC/MBC microbroth dilution (EUCAST); assay type: cell-based; settings: Klebsiella pneumoniae, ATCC700603
Protocol: as §1

[6] = tested on: S. marcescens NCTC 9940; experiment: MIC/MBC microbroth dilution (EUCAST); assay type: cell-based; settings: Serratia marcescens, NCTC9940
Protocol: as §1

[7] = Resazurin-based in vitro cytotoxicity with HepG2 cells; assay type: cell-based, human; settings: HepG2 cells; human hepatocarcinoma cells, 48 h
Protocol: The HepG2 cells were washed with DPBS (Dulbecco’s PBS without calcium and magnesium, Gibco, Cat #21600-044) and trypsinized with trypsin solution in DPBS. Trypsinization was stopped by adding culture medium, and after being stained with Trypan Blue (SORS Ukraine) cells were counted using a counting chamber (Hausser Scientific, Cat #3500). The cell suspension was placed in a falcon tube containing plating medium DMEM/High glucose with 1% fetal bovine serum, 100 units/mL penicillin, and 100 µg/mL streptomycin. Cells at a density of 250,000 cells/mL were seeded in sterile 384-well plates (Greiner Bio-One, Cat #781091) in a volume of […] and incubated at 37 °C and 5% CO2. Serial dilutions of ten 3-fold dilution steps of test and reference compounds covering a range from 100.0 to 0.005 µM were added to the wells, followed by incubation at 37 °C and 5% CO2 for 48 h. Then, resazurin (50 µM final concentration) was added and plates were incubated for another 3 h. The plates were read with a SpectraMax microplate reader (Molecular Devices Cooperation, Sunnyvale, CA, USA)) using an extinction wavelength of 555 nm and an emission wavelength of 570 nm. IC50 values were calculated using GraphPad Prism 9.0 charting software. Doxorubicin (Sigma Aldrich D1515) was used as control.

[8] = tested on: A. baumannii ATCC 19606; experiment: MIC/MBC microbroth dilution (EUCAST); assay type: cell-based, Acinetobacter baumannii; settings: for MBC: ATCC19606
Protocol: as §1

[9] = tested on: P. falciparum NF54; experiment: In vitro microplate assay against P. falciparum NF54 (3H-hypoxanthine incorporation); assay type: cell-based, Plasmodium falciparum; settings: read-out: P.f.NF54 IC50
Protocol: Serial drug dilutions of eleven 3-fold dilution steps covering a range from 100 to 0.002 µg/mL were prepared. […] After 48 h of incubation time, 0.05 mL of ^3H-hypoxanthine (=0.5 µCi) was added to each well of the plate. The plates were incubated for a further 24 h under the same conditions. Plates were then harvested using a BetaplateTM cell harvester (Wallac, Zurich, Switzerland). Red blood cells were transferred onto a glass fiber filter and then washed with distilled aqua demin. The dried filters were inserted into a plastic foil with 10 mL of scintillation fluid and counted in a BetaplateTM liquid scintillation counter (Wallac, Zurich, Switzerland). IC50 values were calculated from sigmoidal inhibition curves by linear regression using Microsoft Excel. […] Louis, MO, USA) was used as control.

[10] = Resazurin-based in vitro cytotoxicity with L-6 cells; assay type: cell-based, rat; settings: rat
Protocol: Serial drug dilutions of eleven 3-fold dilution steps covering a range from 100 to 0.002 µg/mL were prepared. After 70 h of incubation, the plates were inspected under an inverted microscope to assure growth of the controls and sterile conditions. […] The plates were read with a Spectramax Gemini XS microplate fluorometer (Molecular Devices Cooperation, Sunnyvale, CA, USA) using an excitation wavelength of 536 nm and an emission wavelength of 588 nm. IC50 values were calculated by linear regression from the sigmoidal dose–inhibition curves using SoftmaxPro software Version 8.2.1 (Molecular Devices Cooperation, Sunnyvale, CA, USA). Podophyllotoxin (Sigma P4405) was used as control.

[11] = tested on: M. luteus ATCC 10240; experiment: MIC/MBC microbroth dilution (EUCAST); assay type: cell-based, Micrococcus luteus
Protocol: as §1

[12] = tested on: B. subtilis 168a; experiment: MIC/MBC microbroth dilution (EUCAST); assay type: cell-based, Bacillus subtilis
Protocol: as §1

[13] = Escherichia coli, NCTC13353, read-out: MIC
[14] = Acinetobacter baumannii, ATCC19606, read-out: MIC
[15] = Plasmodium falciparum, NF54, chloroquine-sensitive strain NF54, erythrocytic stages
[16] = Micrococcus luteus, ATCC10240, M. luteus ATCC 10240, read-out: MBC
[17] = Micrococcus luteus, ATCC10240, M. luteus ATCC 10240, read-out: MIC
[18] = Bacillus subtilis, 168A, read-out: MIC

| Papp at 5 h, 200 µM [1] | MIC [2, 13] | MIC [3] | MIC [4] | MIC [5] | MIC [6] | MIC [8, 14] | pIC50 [9, 15] | MIC [11, 17] | MIC [12, 18] | Structure (SMILES) | MBC ([2]; Escherichia coli) | MBC [3] | MBC [4] | MBC [5] | MBC [6] | IC50 at 48 h [7] | MBC ([8]; Acinetobacter baumannii) | IC50 at 70 h [10] | MBC [11, 16] | MBC ([12]; Bacillus subtilis, 168A) | other results |
| --- | --- | --- | --- | --- | --- | --- | --- | --- | --- | --- | --- | --- | --- | --- | --- | --- | --- | --- | --- | --- | --- |
| 8.5 ×10⁻⁶ cm/s | 256 µg/mL | 256 µg/mL | > 256 µg/mL | > 256 µg/mL | > 256 µg/mL | 256 µg/mL | 4.26 | 256 µg/mL | 256 µg/mL | CN1CCN(C(=O)c2cccc(C(F)(F)F)c2Oc2ccc(F)cc2)CC1 [Compound 49, [2-(4-Fluorophenoxy)-3-(trifluoromethyl)phenyl](4-methylpiperazin-1-yl)methanon] | > 256 µg/mL | > 256 µg/mL | > 256 µg/mL | > 256 µg/mL | > 256 µg/mL | > 100 µM | > 256 µg/mL | 137 µM | 256 µg/mL | > 256 µg/mL | – |
| 10.4 ×10⁻⁶ cm/s | > 256 µg/mL | > 256 µg/mL | > 256 µg/mL | > 256 µg/mL | > 256 µg/mL | 256 µg/mL | 4.09 | 256 µg/mL | 256 µg/mL | O=C(c1cccc(C(F)(F)F)c1Oc1ccc(F)cc1)N1CCOCC1 [Compound 51, [2-(4-Fluorophenoxy)-3-(trifluoromethyl)phenyl](morpholin-4-yl)methanon] | > 256 µg/mL | > 256 µg/mL | > 256 µg/mL | > 256 µg/mL | > 256 µg/mL | > 100 µM | 256 µg/mL | 154 µM | 128 µg/mL | > 256 µg/mL | – |
| 4.41 ×10⁻⁶ cm/s | 32 to 64 µg/mL | 256 µg/mL | – | > 256 µg/mL | 256 µg/mL | 32 to 64 µg/mL | 6.16 | 16 to 64 µg/mL | 16 to 64 µg/mL | O=C(Nc1ccccc1N1CCNCC1)c1cccc(C(F)(F)F)c1Sc1ccc(F)cc1 [Compound 55, 2-[(4-Fluorophenyl)sulfanyl]-N-[2-(piperazin-1-yl)phenyl]-3-(trifluoromethyl)benz-amide] | 64 µg/mL | > 256 µg/mL | – | > 256 µg/mL | > 256 µg/mL | 4.6 µM | 64 µg/mL | 7.06 µM | 16 to 64 µg/mL | – | Pe [1]: 6.51 10^−6 cm/s; MIC [2]: 64 µg/mL; MIC [8]: 32 µg/mL; pIC50 ([9]; chloroquine-sensitive strain NF54, erythrocytic stages): 6.16; MBC ([11]; M. luteus ATCC 10240): 16 µg/mL; MIC ([11]; M. luteus ATCC 10240): 16 µg/mL; MIC [12]: 32 µg/mL |
